ChEMBL document CHEMBL1201862, “PubChem BioAssay data set” (2004)
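Results reflect a 48-hour exposure of cells in 96-well plates to compound at five concentrations. The concentration for 50% growth inhibition is given as GI50.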 Active and inactive are the calls of the source. Rule as the data show it: active = GI50 up to about 1.1 µM and inactive = higher.

Legend:
Test in all cases: DTP human tumour cell line panel, 48 h
[1] = test system: MDA-MB-435
[2] = test system: EKVX
[3] = test system: CAKI-1
[4] = test system: SN12C
[5] = test system: OVCAR-8
[6] = test system: SNB-19
[7] = test system: NCI/ADR-RES
[8] = test system: UACC-257
[9] = test system: T47D
[10] = test system: Malme-3M
[11] = test system: SK-OV-3
[12] = test system: DU-145
[13] = test system: SW-620
[14] = test system: SK-MEL-5
[15] = test system: COLO 205
[16] = test system: OVCAR-5
[17] = test system: HCC 2998
[18] = test system: BT-549
[19] = test system: ACHN
[20] = test system: SF-295
[21] = test system: IGROV-1
[22] = test system: HT-29
[23] = test system: OVCAR-3
[24] = test system: K562
[25] = test system: PC-3
[26] = test system: UACC-62
[27] = test system: CCRF-CEM
[28] = test system: HCT-116
[29] = test system: SF-268
[30] = test system: HCT-15
[31] = test system: RXF 393
[32] = test system: TK-10
[33] = test system: OVCAR-4
[34] = test system: NCI-H23
[35] = test system: MDA-N
[36] = test system: RPMI-8226
[37] = test system: LOX IMVI
[38] = test system: UO-31
[39] = test system: HOP-92
[40] = test system: SNB-75
[41] = test system: SR
[42] = test system: MOLT-4
[43] = test system: U-251
[44] = test system: 786-0
[45] = test system: M14
[46] = test system: SK-MEL-2
[47] = test system: A549
[48] = test system: A498
[49] = test system: HOP-62
[50] = test system: HL-60
[51] = test system: SF-539
[52] = test system: NCI-H460
[53] = test system: MDA-MB-231
[54] = test system: SK-MEL-28
[55] = test system: Hs-578T
[56] = test system: NCI-H226
[57] = test system: MCF7
[58] = test system: NCI-H522
[59] = test system: KM12

With `C/C(=N/NC(=S)N1CC2CCC(CC2)C1)c1cnccn1` the GI50 [1] was 0.243 µM (active), the GI50 [2] was 0.0101 µM (active) and the GI50 [3] was < 0.01 µM (active). For the same molecule, the GI50 [4] was < 0.0178 µM (active), the GI50 [5] was < 0.01 µM (active) and the GI50 [6] was 0.406 µM (active). For the same molecule, the GI50 [7] was < 0.01 µM (active), the GI50 [8] was < 0.01 µM (active) and the GI50 [9] was < 0.0461 µM (active). For the same molecule, the GI50 [10] was < 0.01 µM (active), the GI50 [11] was < 0.01 µM (active) and the GI50 [12] was 0.376 µM (active). The GI50 [13] was < 0.01 µM (active), the GI50 [14] was < 0.0175 µM (active) and the GI50 [15] was < 0.01 µM (active). For the same molecule, the GI50 [16] was 0.255 µM (active), the GI50 [17] was 0.218 µM (active) and the GI50 [18] was 0.993 µM (active). For the same molecule, the GI50 [19] was < 0.012 µM (active), the GI50 [20] was 0.0551 µM (active) and the GI50 [21] was < 0.01 µM (active). The GI50 [22] was < 0.01 µM (active), the GI50 [23] was < 0.01 µM (active) and the GI50 [24] was < 0.01 µM (active). For the same molecule, the GI50 [25] was < 0.01 µM (active), the GI50 [26] was < 0.023 µM (active) and the GI50 [27] was < 0.01 µM (active). For the same molecule, the GI50 [28] was < 0.01 µM (active), the GI50 [29] was < 0.01 µM (active) and the GI50 [30] was under 0.01 µM. For the same molecule, the GI50 [31] was 0.541 µM (active), the GI50 [32] was 0.67 µM (active) and the GI50 [33] was 0.0264 µM (active). For the same molecule, the GI50 [34] was < 0.01 µM (active), the GI50 [35] was 0.37 µM (active) and the GI50 [36] was < 0.01 µM (active). For the same molecule, the GI50 [37] was < 0.01 µM (active), the GI50 [38] was < 0.0168 µM (active) and the GI50 [39] was 0.619 µM (active). For the same molecule, the GI50 [40] was 0.828 µM (active), the GI50 [41] was < 0.01 µM (active) and the GI50 [42] was < 0.01 µM (active). The GI50 [43] was < 0.01 µM (active), the GI50 [44] was < 0.01 µM (active) and the GI50 [45] was < 0.0104 µM (active). The GI50 [46] was 0.278 µM (active), the GI50 [47] was < 0.01 µM (active) and the GI50 [48] was 1.73 µM (inactive). For the same molecule, the GI50 [49] was < 0.01 µM (active), the GI50 [50] was < 0.01 µM (active) and the GI50 [51] was 0.109 µM (active). For the same molecule, the GI50 [52] was < 0.0109 µM (active), the GI50 [53] was < 0.01 µM (active) and the GI50 [54] was 1.64 µM (inactive). The GI50 [55] was 2.42 µM (inactive), the GI50 [56] was < 0.01 µM (active) and the GI50 [57] was < 0.01 µM (active). The GI50 [58] was 0.117 µM (active).

With `COC(=O)C1C(O)C(C)C(O)C(C)(O)C=C(C)C2=C3C(=C(C)C(=O)c4c(O)c(c(C)c(OC(C)=O)c43)NC(=O)C(C)=C/C=C\C(C)(O)C(O)C(C)C1O)OCO2` (stereo unspecified) the GI50 [1] was 33.9 µM (inactive), the GI50 [2] was > 100 µM (inactive) and the GI50 [4] was 94 µM (inactive). The GI50 [5] was > 100 µM (inactive), the GI50 [6] was > 100 µM (inactive) and the GI50 [7] was > 100 µM (inactive). The GI50 [8] was 28.9 µM (inactive), the GI50 [9] was 67.9 µM (inactive) and the GI50 [10] was 33.7 µM (inactive). For the same molecule, the GI50 [11] was > 100 µM (inactive), the GI50 [12] was > 100 µM (inactive) and the GI50 [13] was 40.8 µM (inactive). The GI50 [14] was 18.3 µM (inactive), the GI50 [15] was 24.4 µM (inactive) and the GI50 [16] was > 100 µM (inactive). For the same molecule, the GI50 [17] was 57.4 µM (inactive), the GI50 [18] was > 100 µM (inactive) and the GI50 [19] was > 100 µM (inactive). The GI50 [20] was > 100 µM (inactive), the GI50 [21] was 55.6 µM (inactive) and the GI50 [22] was 62.2 µM (inactive). The GI50 [23] was 25.7 µM (inactive), the GI50 [24] was 81.1 µM (inactive) and the GI50 [25] was 32.5 µM (inactive). For the same molecule, the GI50 [26] was 53.8 µM (inactive), the GI50 [27] was 49.8 µM (inactive) and the GI50 [28] was 35.5 µM (inactive). The GI50 [29] was 75.2 µM (inactive), the GI50 [30] was over 100 µM and the GI50 [31] was > 100 µM (inactive). For the same molecule, the GI50 [32] was > 100 µM (inactive), the GI50 [33] was 56.4 µM (inactive) and the GI50 [34] was > 100 µM (inactive). For the same molecule, the GI50 [35] was 40.3 µM (inactive), the GI50 [36] was 45.4 µM (inactive) and the GI50 [37] was 35.3 µM (inactive). For the same molecule, the GI50 [38] was 91.6 µM (inactive), the GI50 [59] was 80.2 µM (inactive) and the GI50 [39] was 24.7 µM (inactive). The GI50 [40] was > 100 µM (inactive), the GI50 [41] was 49.4 µM (inactive) and the GI50 [42] was 67.6 µM (inactive). For the same molecule, the GI50 [43] was > 100 µM (inactive), the GI50 [44] was > 100 µM (inactive) and the GI50 [45] was 43.6 µM (inactive). For the same molecule, the GI50 [46] was 22.9 µM (inactive), the GI50 [47] was 88.9 µM (inactive) and the GI50 [48] was > 100 µM (inactive). For the same molecule, the GI50 [49] was > 100 µM (inactive), the GI50 [50] was 25.2 µM (inactive) and the GI50 [51] was > 100 µM (inactive). The GI50 [52] was > 100 µM (inactive), the GI50 [53] was 32.5 µM (inactive) and the GI50 [54] was > 100 µM (inactive). The GI50 [55] was > 100 µM (inactive), the GI50 [56] was > 100 µM (inactive) and the GI50 [57] was 41.3 µM (inactive). For the same molecule, the GI50 [58] was 88.3 µM (inactive).
